From patent US9828407B2, “Water soluble and activable phenolic derivatives with dermocosmetic and therapeutic applications and process for preparing said derivatives” (LIBRAGEN, priority 2006, dated 2017)
“And” between values parts separate entries of the source, which are not always exact repeats. Identical values can stand only once. Like-named read-outs stand apart in the source and are kept apart here.

Columns and labels:
[1] = system: α-glucosidase (from Saccharomyces cerevisiae); assay: Activation (hydrolysis) of Taxifolin glucoside by an α-glucosidase preparation; format: biochemical; details: 18 hours, 30° C., potassium phosphate buffer 0.1 M
Protocol: The reaction media were analysed by HPLC (method 2) after a 2-fold dilution of an aliquot with methanol.

Solubility in water = format: physicochemical; details: 25° C.
[2] = background statement; cited from earlier work

taxifolin O-α-glucoside [Taxifolin glucoside]
conversion of Taxifolin glucoside in the presence of the α-glucosidase enzyme ([1]; pH 7.3): totally converted into Taxifolin
stability of Taxifolin glucoside in the medium without α-glucosidase enzyme ([1]; pH 7.3, no enzyme): remained unchanged
colour or odour changes on storage (4° C., 22° C., 37° C. and 45° C., 4 months): No colour or odour changes
Measured quantity of taxifolin glucoside (in % of the initial quantity) (day 0, stored at +4° C.): 100%
Measured quantity of taxifolin glucoside (in % of the initial quantity) (day 0, stored at +22° C.): 100%
Measured quantity of taxifolin glucoside (in % of the initial quantity) (day 0, stored at +37° C.): 100%
Measured quantity of taxifolin glucoside (in % of the initial quantity) (day 0, stored at +45° C.): 100%
Measured quantity of taxifolin glucoside (in % of the initial quantity) (day 9, stored at +4° C.): 100%
Measured quantity of taxifolin glucoside (in % of the initial quantity) (day 9, stored at +22° C.): 100%
Measured quantity of taxifolin glucoside (in % of the initial quantity) (day 9, stored at +37° C.): 100%
Measured quantity of taxifolin glucoside (in % of the initial quantity) (day 9, stored at +45° C.): 100%
Measured quantity of taxifolin glucoside (in % of the initial quantity) (day 23, stored at +4° C.): 100%
Measured quantity of taxifolin glucoside (in % of the initial quantity) (day 23, stored at +22° C.): 100%
Measured quantity of taxifolin glucoside (in % of the initial quantity) (day 23, stored at +37° C.): 100%
Measured quantity of taxifolin glucoside (in % of the initial quantity) (day 23, stored at +45° C.): 91%
Measured quantity of taxifolin glucoside (in % of the initial quantity) (day 37, stored at +4° C.): 100%
Measured quantity of taxifolin glucoside (in % of the initial quantity) (day 37, stored at +22° C.): 100%
Measured quantity of taxifolin glucoside (in % of the initial quantity) (day 37, stored at +37° C.): 100%
Measured quantity of taxifolin glucoside (in % of the initial quantity) (day 37, stored at +45° C.): 94%
Measured quantity of taxifolin glucoside (in % of the initial quantity) (day 63, stored at +4° C.): 100%
Measured quantity of taxifolin glucoside (in % of the initial quantity) (day 63, stored at +22° C.): 95%
Measured quantity of taxifolin glucoside (in % of the initial quantity) (day 63, stored at +37° C.): 96%
Measured quantity of taxifolin glucoside (in % of the initial quantity) (day 63, stored at +45° C.): 79%
Measured quantity of taxifolin glucoside (in % of the initial quantity) (day 118, stored at +4° C.): 100%
Measured quantity of taxifolin glucoside (in % of the initial quantity) (day 118, stored at +22° C.): 100%
Measured quantity of taxifolin glucoside (in % of the initial quantity) (day 118, stored at +37° C.): 91%
Measured quantity of taxifolin glucoside (in % of the initial quantity) (day 118, stored at +45° C.): 73%

O=C1c2c(O)cc(O)cc2OC(c2ccc(O)c(O)c2)C1O (centres unmarked) [Taxifolin, 3,5,7,3′,4′-pentahydroxyflavanone]
solubility (Solubility in water): 1190 µg/mL and 3910 µM
solubility in aqueous solution [2]: around 1 g/l
